Patent US10138222B2, “Substituted benzamides as RIPK2 inhibitors” (Boehringer Ingelheim International GmbH, priority 2016, dated 2018)

Target: RIPK2 (Homo sapiens (Human), UniProt O43353)
Assay: RIPK2 inhibition, ADP-Glo Kinase Assay
Type: biochemical
Conditions: 8His-RIPK2 FL enzyme 8 nM, ATP 5 μM, 15 minutes pre-incubation, 60 minutes at 37° C., luminescence
Experimental: RIPK2 inhibition for compounds in Table 1 are shown in Table 3 and measured using the following method:
Materials: White, 384-well optiplates (cat.no. 6007290) were purchased from PerkinElmer. The V9103X ADP-Glo Kinase Assay Custom (including ultra-pure ATP) was purchased from Promega. 8His-RIPK2 FL was prepared in-house. All other materials were of highest grade commercially available.
Method: In a 384-well plate, test compound diluted in assay buffer (1% DMSO final) is mixed with 8His-RIPK2 FL enzyme (final concentration of 8 nM). After 15 minutes of pre-incubation at RT, ATP dissolved in assay buffer is added (final concentration 5 μM). The mixture is incubated for 60 minutes at 37° C. in a humidified incubator. Then, ADP Glo Reagent is added, followed by a 40 minute incubation at rt. Finally, Kinase Detection Reagent is added and the entire mixture is incubated for 40 min at RT. The luminescence signal is measured with an Envision reader to determine the amount of ADP produced. Assay buffer: 25 mM HEPES (4-(2-hydroxyethyl)-1-piperazinethanesulfonic acid), 0.1% BSA (bovine serum albumin), 10 mM MgCl2, 5 mM MnCl2, 50 mM KCl, 0.01% CHAPS (3-[(3-cholamidopropyl)dimethylammonio]-1-propanesulfonate), 10 μM Na3VO4, 1 mM DTT (dithiothreitol), pH 7.5 All plates contain wells with vehicle controls instead of compound (1% DMSO) as reference for the high signal (100% CTL (100% of control), high signal), and wells without enzyme as reference for low signal (0% CTL, low signal). The luminescent signal generated is proportional to the ADP produced and is correlated with enzyme activity. The analysis of the data is performed by the calculation of the percentage of ADP production in the presence of the test compound and RIPK2 as compared to the ADP production in the presence of RIPK2 plus 50 μM Gefitinib. (RLU (relative luminescence units) (sample)−RLU(low control))*100/(RLU(high value)−RLU(low control)) [RLU=relative luminescence units].

Sequence of RIPK2 (O43353 whole entry): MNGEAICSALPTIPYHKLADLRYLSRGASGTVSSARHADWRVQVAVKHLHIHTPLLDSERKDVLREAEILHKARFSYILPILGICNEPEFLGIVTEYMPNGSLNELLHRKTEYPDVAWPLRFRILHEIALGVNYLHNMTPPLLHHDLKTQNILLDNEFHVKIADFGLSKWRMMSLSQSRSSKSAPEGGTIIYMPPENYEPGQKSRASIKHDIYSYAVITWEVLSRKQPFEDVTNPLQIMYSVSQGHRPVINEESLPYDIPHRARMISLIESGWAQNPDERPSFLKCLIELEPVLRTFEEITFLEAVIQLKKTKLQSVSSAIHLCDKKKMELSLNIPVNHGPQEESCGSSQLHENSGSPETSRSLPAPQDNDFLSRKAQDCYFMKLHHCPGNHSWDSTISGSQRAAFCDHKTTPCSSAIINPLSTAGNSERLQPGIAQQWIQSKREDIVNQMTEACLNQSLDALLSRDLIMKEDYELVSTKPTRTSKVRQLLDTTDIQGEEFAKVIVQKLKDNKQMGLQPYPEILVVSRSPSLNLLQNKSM

| SMILES | IC50 [nM] |
| --- | --- |
| Cc1ccc(C(=O)NC2CC2)cc1-c1cnn(-c2cncc(NC(=O)C(C)C)c2)c1 [Example 113, N-cyclopropyl-4-methyl-3-{1-[5-(2-methylpropanamido)pyridin-3-yl]-1H-pyrazol-4-yl}benzamide] | 3.5 |
| Cc1ccc(C(=O)NC2CC2)cc1-c1cnn(-c2cncc(NC(=O)CC(C)C)c2)c1 [Example 114, N-cyclopropyl-4-methyl-3-{1-[5-(3-methylbutanamido)pyridin-3-yl]-1H-pyrazol-4-yl}benzamide] | 2.7 |
| Cc1ccc(C(=O)NC2CC2)cc1-c1cnn(-c2cncc(NC(=O)CF)c2)c1 [Example 116, N-cyclopropyl-3-{1-[5-(2-fluoroacetamido)pyridin-3-yl]-1H-pyrazol-4-yl}-4-methylbenzamide] | 7.2 |
| CCC(=O)Nc1cncc(-n2cc(-c3cc(C(=O)NC4CC4)ccc3C)cn2)c1 [Example 117, N-cyclopropyl-4-methyl-3-[1-(5-propanamidopyridin-3-yl)-1H-pyrazol-4-yl]benzamide] | 3.4 |
| Cc1ccc(C(=O)NC2CC2)cc1-c1cnn(-c2cncc(NC(=O)C(C)(C)C)c2)c1 [Example 121, N-cyclopropyl-3-{1-[5-(2,2-dimethylpropanamido)pyridin-3-yl]-1H-pyrazol-4-yl}-4-methyl-benzamide] | 13 |
| Cc1ccc(C(=O)NC2CC2)cc1-c1cnn(-c2cncc(NS(C)(=O)=O)c2)c1 [Example 122, N-cyclopropyl-3-[1-(5-methanesulfonamidopyridin-3-yl)-1H-pyrazol-4-yl]-4-methyl-benzamide] | 9.5 |
| CN(C)c1cncc(-n2cc(-c3cc(C(=O)NC4CC4)c(F)cc3Cl)cn2)n1 [Example 123, 4-chloro-N-cyclopropyl-5-{1-[6-(dimethylamino)pyrazin-2-yl]-1H-pyrazol-4-yl}-2-fluorobenzamide] | 43 |
| CC(=O)N1CC(Oc2cncc(-n3cc(-c4cc(C(=O)NC5CC5)ccc4C)cn3)c2)C1 [Example 124, 3-(1-{5-[(1-acetylazetidin-3-yl)oxy]pyridin-3-yl}-1H-pyrazol-4-yl)-N-cyclopropyl-4-methylbenzamide] | 13 |
| Cc1ccc(C(=O)NC2CC2)cc1-c1cnn(-c2cncc([C@H]3CCC(=O)N3C)c2)c1 [Example 125, N-cyclopropyl-4-methyl-3-(1-{5-[(2R)-1-methyl-5-oxopyrrolidin-2-yl]pyridin-3-yl}-1H-pyrazol-4-yl)benzamide] | 130 |
| CC(=O)N1CC[C@@H](Oc2cncc(-n3cc(-c4cc(C(=O)NC5CC5)ccc4C)cn3)c2)C1 [Example 126, 3-[1-(5-{[(3R)-1-acetylpyrrolidin-3-yl]oxy}pyridin-3-yl)-1H-pyrazol-4-yl]-N-cyclopropyl-4-methyl-benzamide] | 20 |

The next lines start with the values.

| IC50 [nM] | SMILES |
| --- | --- |
| 2.7 | Cc1ccc(C(=O)NC2CC2)cc1-c1cnn(-c2cncc(NC(=O)C3CCC3)c2)c1 [Example 115, 3-[1-(5-cyclobutaneamidopyridin-3-yl)-1H-pyrazol-4-yl]-N-cyclopropyl-4-methylbenzamide] |
| 110 | Cc1ccc(C(=O)NC2CC2)cc1-c1cnn(-c2cncc(N(C)C)n2)c1 [Example 118, N-cyclopropyl-3-{1-[6-(dimethylamino)pyrazin-2-yl]-1H-pyrazol-4-yl}-4-methylbenzamide] |
| 24 | Cc1cncc(-n2cc(-c3cc(C(=O)NC4CC4)ccc3C)cn2)c1 [Example 119, N-cyclopropyl-4-methyl-3-[1-(5-methylpyridin-3-yl)-1H-pyrazol-4-yl]benzamide] |
| 86 | COc1cncc(-n2cc(-c3cc(C(=O)NC4CC4)ccc3C)cn2)n1 [Example 127, N-cyclopropyl-3-[1-(6-methoxy-pyrazin-2-yl)-1H-pyrazol-4-yl]-4-methylbenzamide] |
| 94 | Cc1ccc(C(=O)NC2CC2)cc1-c1cnn(-c2cncc(C3CCOCC3)n2)c1 [Example 128, N-cyclopropyl-4-methyl-3-{1-[6-(oxan-4-yl)pyrazin-2-yl]-1H-pyrazol-4-yl}benzamide] |
